Results reported in patent US8496952B2, “Antimicrobial compositions comprising silver chloride and benzoisothiazoline” (Clariant Finance (BVI) Limited, priority 2007, dated 2013).

Assays:
[1] = system: Staphylococcus aureus DSM 799, Pseudomonas aeruginosa DSM 1128, E-Coli DSM 682, Enterobacter aerogenes NCIMB 10102; test: Kill-kinetic measurement according to the Clariant method, Ag salt/BIT (Example 1); assay type: cell-based; details: summary of Table 1
Protocol: (kill-kinetic measurement according to the Clariant method) of the composition Ag/BIT in comparison to the individual biocides AgCl, AgNO3, composition 1 and composition 5
(§1) • 900 ml of phosphate buffer pH 7.0: • 600 ml of H2O dest. +117 ml of (b)+183 ml of (a)
(§2) The bacteria are cultivated on a caso agar.
(§3) Description of the kill-kinetic measurement according to the Clariant method After the bacteria have spent 24 hours on the culture medium (caso agar), 10 ml of the 0.1 M phosphate buffer are added thereto and mixed for 20 seconds using a vortex mixer; 9 ml of the 0.1 M buffer solution are added to 1 ml of this solution; in turn, 1 ml of this solution are taken and 9 ml of 0.1 M phosphate buffer are added. The resulting solution is the inoculum with which the test series is carried out.
The concentration data given for the above samples refer in each case to elemental silver and pure BIT (i.e. not in salt form). Thus, for example in sample 4, AgNO3 and BIT were mixed together such that the mixture comprised 26.7 ppm of Ag, calculated as element, and 53.3 ppm of BIT, calculated as pure substance.
The germ count was determined in each case at the start (0 h), after 0.5 h, 1 h; 2 h; 3 h; 5 h; 7 h and 24 h in accordance with the TVC method European Pharmacopoeia 2.6.12.

[2] = Color stability of Ag/BIT compared with AgCl, AgNO3, JMAC; assay type: physicochemical
[3] = system: Staphylococcus aureus DSM 799, Pseudomonas aeruginosa DSM 1128, E-Coli DSM 682, Enterobacter aerogenes NCIMB 10102; test: Kill-kinetic measurement according to the Clariant method, supported silver/BIT (Example 2); assay type: cell-based; details: summary of Table 2
Protocol: (Kill-kinetic measurement according to the Clariant method) of silver-BIT mixtures in comparison to the individual biocides silver and BIT
as §1, §2
as §3, with “After” for “Description of the kill-kinetic measurement according to the Clariant method After”
The germ count was determined in each case at the start (0 h), after 0.5 h, 1 h, 2 h; 3 h; 5 h; 7 h and 24 h in accordance with the TVC method European Pharmacopoeia 2.6.12.

| Molecule | antimicrobial effect / efficiency (in words) [1] | Appearance after ([2]; 5 min) | Appearance after ([2]; 30 min) | Appearance after ([2]; 1 h) | Appearance after ([2]; 2 h) | Appearance after ([2]; 6 h) | Appearance after ([2]; 24 h) | Appearance after ([2]; immediately) | antimicrobial effect / efficiency (in words) [3] |
| --- | --- | --- | --- | --- | --- | --- | --- | --- | --- |
| AgNO3 [Sample 8] | moderate | – | – | – | – | – | – | – | – |
| AgCl [Sample 9] | moderate | – | – | – | – | – | – | – | – |
| [Cl][Ag] [AgCl] | – | gray | dark gray | dark gray | dark gray | dark gray | dark gray | white | – |
| O=c1[nH]sc2ccccc12 [Benzoisothiazoline, 1,2-benzoisothiazolin-3-one] | – | – | – | – | – | – | – | – | only develops its antimicrobial effect after many hours |
| silver ions | – | – | – | – | – | – | – | – | moderate |
| O=[N+]([O-])[O-].[Ag+] [AgNO3 solution, AgNO3] | – | dark gray | dark gray | dark gray | dark gray | dark gray | dark gray | gray | – |
